Measurements published in PubChem BioAssay AID328 (DTP/NCI, 2004).
Where “and” joins values, the source holds several entries; their conditions need not be identical. Equal values may be shown once. Inconclusive results and toxic doses are left out.

Test system: BDF1 mice, P388 leukemia ip, median survival T/C
Test: NCI In Vivo Anticancer Drug Screen. Data for tumor model P388 Leukemia (intraperitoneal) in B6D2F1 (BDF1) mice
Details: endpoint: median survival time, higher = longer survival
Outline: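 Antitumour effect was judged in vivo: survival in drug-treated mice, normalised to that of vehicle-dosed controls, gives the reported T/C.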

[1] = dose: 100.0 mg/kg/injection, schedule: Q01DX009 (ip), vehicle: Klucel (hydroxypropylcellulose) (HPC)
[2] = dose: 200.0 mg/kg/injection, schedule: Q01DX009 (ip), vehicle: Klucel (hydroxypropylcellulose) (HPC)
[3] = dose: 400.0 mg/kg/injection, schedule: Q01DX009 (ip), vehicle: Klucel (hydroxypropylcellulose) (HPC)
[4] = dose: 25.0 mg/kg/injection, schedule: Q01DX009 (ip), vehicle: saline with Tween-80
[5] = dose: 50.0 mg/kg/injection, schedule: Q01DX009 (ip), vehicle: saline with Tween-80
[6] = dose: 100.0 mg/kg/injection, schedule: Q01DX009 (ip), vehicle: saline with Tween-80
[7] = dose: 100.0 mg/kg/injection, schedule: Q04DX003 (ip), vehicle: saline with Tween-80
[8] = dose: 200.0 mg/kg/injection, schedule: Q04DX003 (ip), vehicle: saline with Tween-80
[9] = dose: 400.0 mg/kg/injection, schedule: Q04DX003 (ip), vehicle: saline with Tween-80
[10] = dose: 200.0 mg/kg/injection, schedule: Q01DX009 (ip), vehicle: saline with Tween-80
[11] = dose: 100.0 mg/kg/injection, schedule: Q01DX001 (ip), vehicle: saline with Tween-80
[12] = dose: 12.5 mg/kg/injection, schedule: Q01DX009 (ip), vehicle: saline with Tween-80

`NC(=O)C1(C(N)=O)CCC1` was tested, and the T/C [1] was 100 % of control, the T/C (dose: 100.0 mg/kg/injection, schedule: Q04DX003 (ip), vehicle: Klucel (hydroxypropylcellulose) (HPC)) was 100 % of control and the T/C [2] was 110 % of control. For the same molecule, the T/C (dose: 200.0 mg/kg/injection, schedule: Q04DX003 (ip), vehicle: Klucel (hydroxypropylcellulose) (HPC)) was 100 % of control, the T/C [3] was 100 % of control and the T/C (dose: 400.0 mg/kg/injection, schedule: Q04DX003 (ip), vehicle: Klucel (hydroxypropylcellulose) (HPC)) was 100 % of control.

`O=C1/C(=N/O)Cc2ccccc21` was tested, and the T/C (dose: 0.1 mg/kg/injection, schedule: Q01DX009 (ip), vehicle: water) was 101 % of control, the T/C (dose: 0.2 mg/kg/injection, schedule: Q01DX009 (ip), vehicle: water) was 103 % of control and 108 % of control and the T/C (dose: 0.8 mg/kg/injection, schedule: Q01DX009 (ip), vehicle: water) was 106 % of control. The T/C (dose: 1.2 mg/kg/injection, schedule: Q01DX009 (ip), vehicle: water) was 108 % of control, the T/C (dose: 2.4 mg/kg/injection, schedule: Q01DX009 (ip), vehicle: water) was 96 % of control and the T/C (dose: 3.12 mg/kg/injection, schedule: Q04DX003 (ip), vehicle: water) was 106 % of control. For the same molecule, the T/C (dose: 6.25 mg/kg/injection, schedule: Q04DX003 (ip), vehicle: water) was 97 % of control, the T/C (dose: 12.5 mg/kg/injection, schedule: Q04DX003 (ip), vehicle: water) was 115 % of control and the T/C (dose: 25.0 mg/kg/injection, schedule: Q04DX003 (ip), vehicle: water) was 104 % of control. The T/C (dose: 50.0 mg/kg/injection, schedule: Q04DX003 (ip), vehicle: water) was 106 % of control.

For `CCOC(=O)C(CC)(CCC(C)C)C(=O)OCC`, the T/C [4] was 95 % of control, the T/C [5] was 95 % of control and the T/C [6] was 100 % of control.

With `O=C(NNc1ccccc1)C12CC3CC(CC(C3)C1)C2` the T/C [5] was 96 % of control and the T/C [6] was 91 % of control.

`C/C=C(\CC)C(=O)NC(N)=O` was tested, and the T/C [1] was 95 % of control, the T/C [2] was 100 % of control and the T/C [3] was 122 % of control.

For `COC(=O)/C=C(\C)Oc1cc(Cl)c(Cl)cc1Cl`, the T/C [4] was 90 % of control, the T/C [5] was 100 % of control and the T/C [6] was 100 % of control. The T/C [7] was 109 % of control, the T/C [8] was 100 % of control and the T/C [9] was 95 % of control.

For `NC(=O)C(O)C(Br)(Br)Br` (stereo not drawn), the T/C (dose: 100.0 mg/kg/injection, schedule: Q01DX009 (ip), vehicle: saline) was 116 % of control, the T/C (dose: 100.0 mg/kg/injection, schedule: Q04DX003 (ip), vehicle: saline) was 95 % of control and the T/C (dose: 200.0 mg/kg/injection, schedule: Q01DX009 (ip), vehicle: saline) was 108 % of control. The T/C (dose: 200.0 mg/kg/injection, schedule: Q04DX003 (ip), vehicle: saline) was 104 % of control and the T/C (dose: 400.0 mg/kg/injection, schedule: Q04DX003 (ip), vehicle: saline) was 100 % of control.

With `O=C(/C=N/O)/C=N/O` (tested in a mixture with another compound) the T/C (dose: 6.0 mg/kg/injection, schedule: Q01DX009 (ip), vehicle: saline) was 108 % of control, the T/C (dose: 6.0 mg/kg/injection, schedule: Q04DX003 (ip), vehicle: saline) was 100 % of control and the T/C (dose: 12.0 mg/kg/injection, schedule: Q01DX009 (ip), vehicle: saline) was 100 % of control. For the same molecule, the T/C (dose: 12.0 mg/kg/injection, schedule: Q04DX003 (ip), vehicle: saline) was 113 % of control, the T/C (dose: 25.0 mg/kg/injection, schedule: Q01DX009 (ip), vehicle: saline) was 100 % of control and the T/C (dose: 25.0 mg/kg/injection, schedule: Q04DX003 (ip), vehicle: saline) was 95 % of control.

`CN(C)c1ccc(/C=C/c2ccnc3c(Cl)cccc23)cc1` was tested, and the T/C [5] was 94 % of control, the T/C [6] was 98 % of control and the T/C [10] was 100 % of control.

`CC(C)c1ncc(CCCN=C(N)N)[nH]c1=O` was tested, and the T/C (dose: 37.5 mg/kg/injection, schedule: Q01DX009 (ip), vehicle: saline) was 98 % of control, the T/C (dose: 75.0 mg/kg/injection, schedule: Q01DX009 (ip), vehicle: saline) was 94 % of control and the T/C (dose: 150.0 mg/kg/injection, schedule: Q01DX009 (ip), vehicle: saline) was 90 % of control.

`O=[N+]([O-])c1ccc(N/N=C(\CCl)c2ccccc2)c([N+](=O)[O-])c1` was tested, and the T/C (dose: 25.0 mg/kg/injection, schedule: Q01DX001 (ip), vehicle: saline with Tween-80) was 109 % of control, the T/C (dose: 50.0 mg/kg/injection, schedule: Q01DX001 (ip), vehicle: saline with Tween-80) was 104 % of control and the T/C [11] was 104 % of control.

`O=[N+]([O-])c1cccc(/C=C/c2cc(N(CCO)CCO)c3ccccc3n2)c1` was tested, and the T/C [5] was 91 % of control, the T/C [6] was 89 % of control and the T/C [10] was 94 % of control.

For `CCCCCCCCCCCCNC`, the T/C (dose: 12.5 mg/kg/injection, schedule: Q04DX003 (ip), vehicle: saline with Tween-80) was 104 % of control, the T/C (dose: 25.0 mg/kg/injection, schedule: Q04DX003 (ip), vehicle: saline with Tween-80) was 109 % of control and the T/C (dose: 50.0 mg/kg/injection, schedule: Q04DX003 (ip), vehicle: saline with Tween-80) was 100 % of control.

With `Nc1ccc(C2=NN(c3ccccc3)CN(c3ccccc3)N2)cc1` the T/C [11] was 101 % of control, the T/C (dose: 200.0 mg/kg/injection, schedule: Q01DX001 (ip), vehicle: saline with Tween-80) was 107 % of control and the T/C (dose: 400.0 mg/kg/injection, schedule: Q01DX001 (ip), vehicle: saline with Tween-80) was 102 % of control.

For `Nc1nc(N)c(N=O)c(Nc2ccc(I)cc2)n1`, the T/C [6] was 108 % of control, the T/C [7] was 112 % of control and the T/C [10] was 95 % of control. For the same molecule, the T/C [8] was 108 % of control and the T/C [9] was 100 % of control.

In the case of `CC(Br)C(=O)c1ccc(OCc2ccccc2)cc1` (stereo not drawn), the T/C [5] is reported as 117 % of control and the T/C [6] is reported as 119 % of control.

With `CC1(C)OC2(C)CCC1C(=O)C2N1CCCCC1` (stereo not drawn) the T/C (dose: 50.0 mg/kg/injection, schedule: Q01DX005 (ip), vehicle: saline with Tween-80) was 105 % of control, the T/C (dose: 100.0 mg/kg/injection, schedule: Q01DX005 (ip), vehicle: saline with Tween-80) was 95 % of control and the T/C (dose: 200.0 mg/kg/injection, schedule: Q01DX005 (ip), vehicle: saline with Tween-80) was 101 % of control.

In the case of `CCC/C=C/C=C/C1CC(O)C(O)C(=O)C1CO` (stereo not drawn), the T/C [12] is reported as 99 % of control, the T/C [4] is reported as 106 % of control and the T/C [5] is reported as 97 % of control. For the same molecule, the T/C [6] was 101 % of control.

With `COc1ccc(C(C)c2ccccc2)cc1C(C)c1ccccc1` (stereo not drawn) the T/C [7] was 109 % of control, the T/C [8] was 90 % of control and the T/C [9] was 100 % of control.

In the case of `O=NN(CCCl)C(=O)Nc1c[nH]c2ccccc12`, the T/C (dose: 50.0 mg/kg/injection, schedule: Q01DX009 (ip), vehicle: Klucel (hydroxypropylcellulose) (HPC)) is reported as 92 % of control, the T/C [1] is reported as 107 % of control and the T/C [2] is reported as 108 % of control. For the same molecule, the T/C [3] was 117 % of control.

For `COc1cccc2c1C(=O)c1c(O)c3c(c(O)c1C2=O)CC(O)(/C(C)=N/NC(=O)CCCCCCC(=O)N/N=C(\C)C1(O)Cc2c(O)c4c(c(O)c2C(OC2CC(N)C(O)C(C)O2)C1)C(=O)c1c(OC)cccc1C4=O)CC3OC1CC(N)C(O)C(C)O1` (stereo not drawn), the T/C (dose: 2.0 mg/kg/injection, schedule: Q01DX009 (ip), vehicle: water) was 165 % of control and the T/C (dose: 4.0 mg/kg/injection, schedule: Q01DX009 (ip), vehicle: water) was 201 % of control.

With `C/C=C1/C[C@@H](C)[C@@](C)(O)C(=O)OCC2=CC[N+]3([O-])CC[C@@H](OC1=O)[C@@H]23` (stereo partly drawn) the T/C (dose: 10.0 mg/kg/injection, schedule: Q01DX010 (ip), vehicle: saline) was 109 % of control, the T/C (dose: 20.0 mg/kg/injection, schedule: Q01DX010 (ip), vehicle: saline) was 104 % of control and the T/C (dose: 40.0 mg/kg/injection, schedule: Q01DX010 (ip), vehicle: saline) was 113 % of control. For the same molecule, the T/C (dose: 80.0 mg/kg/injection, schedule: Q01DX010 (ip), vehicle: saline) was 109 % of control.

`CCCCCCC(O)CCc1ccccc1` (stereo not drawn) was tested, and the T/C (dose: 100.0 mg/kg/injection, schedule: Q01DX001 (ip), vehicle: Klucel (hydroxypropylcellulose) (HPC)) was 100 % of control, the T/C (dose: 200.0 mg/kg/injection, schedule: Q01DX001 (ip), vehicle: Klucel (hydroxypropylcellulose) (HPC)) was 95 % of control and the T/C (dose: 400.0 mg/kg/injection, schedule: Q01DX001 (ip), vehicle: Klucel (hydroxypropylcellulose) (HPC)) was 104 % of control.

For `NC1=Nc2cccc3cccc(c23)N1`, the T/C [12] was 92 % of control, the T/C (dose: 12.5 mg/kg/injection, schedule: Q04DX003 (ip), vehicle: Klucel (hydroxypropylcellulose) (HPC)) was 109 % of control and the T/C [4] was 100 % of control. The T/C (dose: 25.0 mg/kg/injection, schedule: Q04DX003 (ip), vehicle: Klucel (hydroxypropylcellulose) (HPC)) was 100 % of control, the T/C [5] was 100 % of control and the T/C (dose: 50.0 mg/kg/injection, schedule: Q04DX003 (ip), vehicle: Klucel (hydroxypropylcellulose) (HPC)) was 109 % of control.

For `O=C1OCc2cc3ccccc3nc21`, the T/C [7] was 109 % of control, the T/C [8] was 100 % of control and the T/C [9] was 104 % of control.
